Measured values reported in ChEMBL document CHEMBL1201862, “PubChem BioAssay data set” (2004).
Each block holds one compound with its values, some of them ahead of it. Calls of active or inactive are those of the source. Cut-off read from the data, not from the text of the source, for most assays here: actives have a measured IC50 and inactives only a lower limit.

How the values were obtained:
Hexokinase-1 = Hexokinase-1 (Homo sapiens, UniProt P19367); test: HK1 enzyme inhibition by HKDC1 hits, SAR follow-up, selectivity assay for HKDC1 inhibitor project, biochemical, set 2, resazurin fluorescence coupled readout (AID 588356); type: functional
Hexokinase HKDC1 [1] = biological target: T1, Hexokinase HKDC1 (Homo sapiens, UniProt Q2TB90); test: SAR analysis of small molecule inhibitors of hexokinase domain containing I (HKDC1) - Set 3. [Related pubchem assays (depositor defined):AID493160, AID493190]; type: functional
T1 sequence (Q2TB90 whole entry): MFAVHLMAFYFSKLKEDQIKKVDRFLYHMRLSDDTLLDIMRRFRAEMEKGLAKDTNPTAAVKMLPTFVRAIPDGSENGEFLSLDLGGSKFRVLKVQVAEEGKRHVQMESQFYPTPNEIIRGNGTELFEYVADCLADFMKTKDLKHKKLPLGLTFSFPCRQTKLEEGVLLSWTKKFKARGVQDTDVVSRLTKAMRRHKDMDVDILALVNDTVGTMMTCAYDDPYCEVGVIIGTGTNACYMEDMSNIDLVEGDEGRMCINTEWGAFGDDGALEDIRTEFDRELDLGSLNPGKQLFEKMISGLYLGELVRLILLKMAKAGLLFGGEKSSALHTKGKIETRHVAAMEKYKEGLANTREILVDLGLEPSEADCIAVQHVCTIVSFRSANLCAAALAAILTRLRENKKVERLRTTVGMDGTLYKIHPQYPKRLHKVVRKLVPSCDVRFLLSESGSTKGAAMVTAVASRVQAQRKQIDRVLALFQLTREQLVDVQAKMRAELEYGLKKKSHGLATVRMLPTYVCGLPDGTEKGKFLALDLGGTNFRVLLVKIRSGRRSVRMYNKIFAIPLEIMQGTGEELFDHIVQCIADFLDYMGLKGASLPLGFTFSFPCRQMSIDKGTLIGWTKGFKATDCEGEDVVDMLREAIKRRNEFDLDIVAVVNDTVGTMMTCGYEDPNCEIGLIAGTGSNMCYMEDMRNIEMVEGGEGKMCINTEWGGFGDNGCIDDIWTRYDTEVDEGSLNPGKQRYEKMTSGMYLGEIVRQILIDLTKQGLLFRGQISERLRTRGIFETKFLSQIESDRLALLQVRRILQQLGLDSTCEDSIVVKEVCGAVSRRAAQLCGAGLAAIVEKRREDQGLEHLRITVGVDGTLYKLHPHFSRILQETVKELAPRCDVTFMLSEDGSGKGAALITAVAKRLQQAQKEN

Hexokinase HKDC1 [2] = biological target: T1, Hexokinase HKDC1; test: HKDC1 hexokinase inhibitors, SAR follow-up, biochemical, set 2 (AID 588355); type: functional
[3] = biological target: Latent membrane protein 1 (Human herpesvirus 4 (strain B95-8), UniProt P03230); test: TES1-eGFP NF-kB reporter inhibition versus Tet-On dsRED, dose response, selectivity assay for LMP1 NF-kB inhibitor project, imaging, HEK293T, dual-color eGFP/dsRED, cherry-picks (AID 588398); type: functional, cell-based
[4] = biological target: T2, Sentrin-specific protease 8 (Homo sapiens, UniProt Q96LD8); test: SENP8 protease inhibitors, SAR follow-up, biochemical, luminescence (AID 504501); type: functional
T2 sequence (Q96LD8 whole entry): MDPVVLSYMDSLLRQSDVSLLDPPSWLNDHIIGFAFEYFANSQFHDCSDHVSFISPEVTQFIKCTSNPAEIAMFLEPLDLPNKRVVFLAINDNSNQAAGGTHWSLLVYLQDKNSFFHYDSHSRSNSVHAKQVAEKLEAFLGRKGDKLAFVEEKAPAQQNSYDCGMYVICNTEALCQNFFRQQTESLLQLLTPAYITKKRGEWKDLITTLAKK

Caspase-3 [5] = biological target: T3, Caspase-3 (Homo sapiens, UniProt P42574); test: caspase-3 inhibitors as off-family protease, SAR follow-up, selectivity assay for SENP protease inhibitor project, biochemical, luminescence, set 2 (AID 588599); type: functional
T3 sequence (P42574 whole entry): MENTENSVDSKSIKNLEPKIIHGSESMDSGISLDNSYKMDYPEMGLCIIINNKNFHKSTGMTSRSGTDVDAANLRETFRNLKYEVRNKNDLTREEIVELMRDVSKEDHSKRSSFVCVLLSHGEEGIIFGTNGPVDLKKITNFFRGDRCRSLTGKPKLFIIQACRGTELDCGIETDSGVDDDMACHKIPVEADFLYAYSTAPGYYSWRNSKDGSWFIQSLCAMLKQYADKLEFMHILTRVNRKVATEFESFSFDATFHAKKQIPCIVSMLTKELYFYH

[6] = biological target: T2, Sentrin-specific protease 8; test: SENP8 protease inhibitors, SAR follow-up, biochemical, luminescence, set 2 (AID 588601); type: functional
Caspase-3 [7] = biological target: T3, Caspase-3; test: SAR Analysis of small molecule inhibitors of Sentrin-specific proteases (SENPs) using a Caspase-3 Selectivity assay. [Related pubchem assays (depositor defined):AID2540, AID2599, AID434973, AID489001]; type: functional
[8] = biological target: T4, Sentrin-specific protease 7 (Homo sapiens, UniProt Q9BQF6); test: SENP7 protease inhibitors, SAR follow-up, biochemical, luminescence, set 2 (AID 588600); type: functional
T4 sequence (Q9BQF6 whole entry): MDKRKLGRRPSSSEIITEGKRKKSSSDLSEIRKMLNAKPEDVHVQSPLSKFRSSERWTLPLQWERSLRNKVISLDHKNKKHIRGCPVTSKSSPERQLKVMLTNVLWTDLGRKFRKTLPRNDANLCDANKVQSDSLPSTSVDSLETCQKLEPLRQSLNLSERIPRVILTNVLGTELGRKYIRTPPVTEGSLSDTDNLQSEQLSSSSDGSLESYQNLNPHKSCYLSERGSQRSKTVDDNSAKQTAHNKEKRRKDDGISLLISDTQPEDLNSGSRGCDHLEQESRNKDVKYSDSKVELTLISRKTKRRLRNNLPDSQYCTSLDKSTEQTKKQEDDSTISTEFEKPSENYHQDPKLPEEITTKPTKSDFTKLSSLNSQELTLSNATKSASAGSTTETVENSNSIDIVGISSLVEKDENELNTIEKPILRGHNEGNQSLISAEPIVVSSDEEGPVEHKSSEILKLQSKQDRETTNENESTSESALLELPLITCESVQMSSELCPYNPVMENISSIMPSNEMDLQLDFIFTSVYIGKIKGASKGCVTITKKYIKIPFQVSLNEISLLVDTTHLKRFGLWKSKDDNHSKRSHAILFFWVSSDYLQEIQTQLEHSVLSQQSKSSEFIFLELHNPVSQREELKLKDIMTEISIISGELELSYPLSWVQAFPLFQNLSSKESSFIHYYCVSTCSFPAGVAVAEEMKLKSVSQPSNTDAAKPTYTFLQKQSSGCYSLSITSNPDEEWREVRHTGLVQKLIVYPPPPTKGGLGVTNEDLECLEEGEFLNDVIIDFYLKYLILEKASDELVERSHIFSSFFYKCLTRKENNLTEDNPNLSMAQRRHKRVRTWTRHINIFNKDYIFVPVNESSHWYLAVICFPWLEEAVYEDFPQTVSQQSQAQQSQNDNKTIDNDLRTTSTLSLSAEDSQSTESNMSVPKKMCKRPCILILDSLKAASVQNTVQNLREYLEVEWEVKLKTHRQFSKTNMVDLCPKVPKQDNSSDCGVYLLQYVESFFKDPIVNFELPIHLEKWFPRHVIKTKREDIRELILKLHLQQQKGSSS

[9] = biological target: T5, Sentrin-specific protease 6 (Homo sapiens, UniProt Q9GZR1); test: SAR Analysis of small molecule inhibitors of Sentrin-specific protease 6 (SENP6) using a Luminescent assay. [Related pubchem assays (depositor defined):AID2582, AID2599]; type: functional
T5 sequence (Q9GZR1 whole entry): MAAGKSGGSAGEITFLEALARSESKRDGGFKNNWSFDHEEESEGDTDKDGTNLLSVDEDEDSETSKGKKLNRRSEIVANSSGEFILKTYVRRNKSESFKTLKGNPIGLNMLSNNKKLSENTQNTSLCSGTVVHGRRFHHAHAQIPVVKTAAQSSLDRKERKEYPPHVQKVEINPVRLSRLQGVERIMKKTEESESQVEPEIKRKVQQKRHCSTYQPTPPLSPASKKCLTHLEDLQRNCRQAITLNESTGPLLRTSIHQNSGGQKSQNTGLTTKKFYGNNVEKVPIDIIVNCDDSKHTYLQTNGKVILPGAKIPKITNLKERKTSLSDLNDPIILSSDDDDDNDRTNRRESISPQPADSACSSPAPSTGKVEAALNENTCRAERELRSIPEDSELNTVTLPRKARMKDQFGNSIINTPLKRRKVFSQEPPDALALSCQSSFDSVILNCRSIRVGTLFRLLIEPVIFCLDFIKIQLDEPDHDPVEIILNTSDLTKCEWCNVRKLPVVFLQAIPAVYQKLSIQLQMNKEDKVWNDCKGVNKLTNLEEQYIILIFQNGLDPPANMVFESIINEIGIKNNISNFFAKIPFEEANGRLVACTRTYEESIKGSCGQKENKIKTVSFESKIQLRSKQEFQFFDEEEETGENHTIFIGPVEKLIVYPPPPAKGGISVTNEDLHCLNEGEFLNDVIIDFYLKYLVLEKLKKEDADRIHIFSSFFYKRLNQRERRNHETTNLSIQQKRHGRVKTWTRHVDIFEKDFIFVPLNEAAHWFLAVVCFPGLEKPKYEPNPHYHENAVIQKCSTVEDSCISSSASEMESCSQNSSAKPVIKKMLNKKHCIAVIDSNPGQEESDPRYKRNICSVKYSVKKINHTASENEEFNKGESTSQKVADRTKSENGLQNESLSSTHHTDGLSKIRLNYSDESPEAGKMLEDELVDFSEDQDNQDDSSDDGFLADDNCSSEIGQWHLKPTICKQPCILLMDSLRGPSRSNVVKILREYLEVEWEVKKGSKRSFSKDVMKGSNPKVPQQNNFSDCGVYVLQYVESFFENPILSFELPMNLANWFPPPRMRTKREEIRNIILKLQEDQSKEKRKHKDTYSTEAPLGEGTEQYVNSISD

[10] = biological target: T5, Sentrin-specific protease 6; test: SENP6 protease inhibitors, SAR follow-up, biochemical, luminescence, set 2 (AID 588598); type: functional
[11] = biological target: T4, Sentrin-specific protease 7; test: SENP7 protease inhibitors, SAR follow-up, biochemical, luminescence (AID 504497); type: functional

Sequence of Hexokinase-1 (P19367 whole entry, the tested form may be a part): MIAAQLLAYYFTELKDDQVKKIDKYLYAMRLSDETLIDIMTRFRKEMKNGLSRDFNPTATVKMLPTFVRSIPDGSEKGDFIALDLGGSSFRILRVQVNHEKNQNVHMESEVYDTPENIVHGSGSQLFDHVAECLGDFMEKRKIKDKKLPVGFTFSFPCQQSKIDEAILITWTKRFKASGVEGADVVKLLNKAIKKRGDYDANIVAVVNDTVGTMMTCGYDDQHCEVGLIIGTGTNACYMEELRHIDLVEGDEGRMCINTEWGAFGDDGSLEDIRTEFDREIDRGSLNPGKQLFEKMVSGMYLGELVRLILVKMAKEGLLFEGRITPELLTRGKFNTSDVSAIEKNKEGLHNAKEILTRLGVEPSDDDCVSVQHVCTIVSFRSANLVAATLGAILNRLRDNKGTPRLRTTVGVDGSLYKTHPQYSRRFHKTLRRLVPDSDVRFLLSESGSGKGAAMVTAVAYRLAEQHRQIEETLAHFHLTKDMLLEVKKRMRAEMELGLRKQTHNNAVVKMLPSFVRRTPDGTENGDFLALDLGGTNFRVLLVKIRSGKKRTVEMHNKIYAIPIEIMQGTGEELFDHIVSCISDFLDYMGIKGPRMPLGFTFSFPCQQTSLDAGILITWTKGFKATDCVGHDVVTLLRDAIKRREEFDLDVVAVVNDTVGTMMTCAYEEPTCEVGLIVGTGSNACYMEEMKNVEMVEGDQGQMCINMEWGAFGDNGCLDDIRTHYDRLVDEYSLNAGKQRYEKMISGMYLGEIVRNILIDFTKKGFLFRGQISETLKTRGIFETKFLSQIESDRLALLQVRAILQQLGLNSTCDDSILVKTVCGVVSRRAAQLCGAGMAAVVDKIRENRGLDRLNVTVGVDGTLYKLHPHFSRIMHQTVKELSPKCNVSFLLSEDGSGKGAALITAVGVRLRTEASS
Sequence of Latent membrane protein 1 (P03230 whole entry): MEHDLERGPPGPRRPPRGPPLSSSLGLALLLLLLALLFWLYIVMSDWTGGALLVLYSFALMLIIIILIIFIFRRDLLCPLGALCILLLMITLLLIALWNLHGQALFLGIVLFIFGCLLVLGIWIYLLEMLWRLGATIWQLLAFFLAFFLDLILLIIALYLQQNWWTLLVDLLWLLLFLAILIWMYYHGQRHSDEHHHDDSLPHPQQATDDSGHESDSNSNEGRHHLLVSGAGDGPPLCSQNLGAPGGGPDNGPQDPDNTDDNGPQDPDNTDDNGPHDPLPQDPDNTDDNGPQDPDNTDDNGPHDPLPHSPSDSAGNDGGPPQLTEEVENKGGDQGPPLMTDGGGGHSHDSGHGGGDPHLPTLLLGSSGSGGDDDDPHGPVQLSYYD

IC50 (Hexokinase-1): > 80 µM (inactive)
IC50 (Hexokinase HKDC1 [1]): > 80 µM (inactive)
IC50 (Hexokinase HKDC1 [2]): > 80 µM (inactive)
SMILES: CC(=O)NC1C(=O)N(CCN2CCOCC2)c2ccc(Br)cc21 (configuration not stated)

AC50 [3]: 30.1 µM (active)
SMILES: O=C1N[C@@H](Cc2c[nH]c3ccccc23)COC(=O)[C@H](Cc2ccc(F)cc2)C/C=C\C[C@H]1CC(=O)N(CCO)Cc1ccccc1

IC50 (Caspase-3 [5]): 1.98 µM (active)
IC50 (Caspase-3 [7]): 2.4 µM (active)
IC50 [8]: 2.9 µM (active)
IC50 [9]: 3.2 µM (active)
IC50 [10]: 2.89 µM (active)
IC50 [11]: 2.5 µM (active)
SMILES: O=C(Nc1nc2ccc(Cl)cc2s1)c1nccs1
IC50 [4]: 3.5 µM (active)
IC50 [6]: 2.38 µM (active)
